“And” between values parts separate entries of the source, which are not always exact repeats. Equal entries are not always repeated. Toxic doses and inconclusive results are not listed. Rule as the data show it: active = T/C of 150% or more; inactive = T/C below 125%.
Test system: L1210 leukemia ip in BDF1 mice, survival T/C
Experiment: NCI In Vivo Anticancer Drug Screen. Data for tumor model L1210 Leukemia (intraperitoneal) in B6D2F1 (BDF1) mice
Settings: endpoint: mean survival time, higher = longer survival
How it was run: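 Antitumor effect is assessed in tumor-bearing animals. Survival in the compound arm is compared with a vehicle-dosed control arm and expressed as their quotient.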

[1] = dose: 100.0 mg/kg/injection, schedule: Q04DX003 (ip), vehicle: Klucel (hydroxypropylcellulose) (HPC)
[2] = dose: 200.0 mg/kg/injection, schedule: Q04DX003 (ip), vehicle: Klucel (hydroxypropylcellulose) (HPC)
[3] = dose: 400.0 mg/kg/injection, schedule: Q04DX003 (ip), vehicle: Klucel (hydroxypropylcellulose) (HPC)
[4] = dose: 100.0 mg/kg/injection, schedule: Q01DX001 (ip), vehicle: carboxymethylcellulose (CMC)
[5] = dose: 200.0 mg/kg/injection, schedule: Q01DX001 (ip), vehicle: carboxymethylcellulose (CMC)
[6] = dose: 400.0 mg/kg/injection, schedule: Q01DX001 (ip), vehicle: carboxymethylcellulose (CMC)
[7] = dose: 100.0 mg/kg/injection, schedule: Q01DX009 (ip), vehicle: Klucel (hydroxypropylcellulose) (HPC)
[8] = dose: 400.0 mg/kg/injection, schedule: Q01DX009 (ip), vehicle: Klucel (hydroxypropylcellulose) (HPC)
[9] = dose: 50.0 mg/kg/injection, schedule: Q01DX009 (ip), vehicle: Klucel (hydroxypropylcellulose) (HPC)
[10] = dose: 100.0 mg/kg/injection, schedule: Q01DX009 (ip), vehicle: saline with Tween-80
[11] = dose: 100.0 mg/kg/injection, schedule: Q04DX003 (ip), vehicle: saline with Tween-80
[12] = dose: 200.0 mg/kg/injection, schedule: Q01DX009 (ip), vehicle: saline with Tween-80
[13] = dose: 200.0 mg/kg/injection, schedule: Q04DX003 (ip), vehicle: saline with Tween-80
[14] = dose: 50.0 mg/kg/injection, schedule: Q01DX009 (ip), vehicle: saline with Tween-80

Measured: T/C

CCCCCCCCCCCCCCSc1ccc2ccccc2c1
inactive: [1] 92 % of control | [2] 86 % of control | [3] 87 % of control

Cc1ccc(S(=O)(=O)N2c3ccccc3-c3ccccc3C(=O)C2Br)cc1 (stereo unspecified)
inactive: [4] 105 % of control | [5] 105 % of control | [6] 124 % of control

O=[N+]([O-])C12CCC(c3ccccc31)c1ccccc12
inactive: dose: 100.0 mg/kg/injection, schedule: Q04DX002 (ip), vehicle: gum acacia 103 % of control | dose: 200.0 mg/kg/injection, schedule: Q04DX002 (ip), vehicle: gum acacia 101 % of control | dose: 400.0 mg/kg/injection, schedule: Q04DX002 (ip), vehicle: gum acacia 92 % of control

O=[N+]([O-])c1ccc(OCCCCOc2ccccc2)cc1
inactive: dose: 100.0 mg/kg/injection, schedule: Q01DX009 (ip), vehicle: saline 110 % of control | dose: 200.0 mg/kg/injection, schedule: Q01DX009 (ip), vehicle: saline 96 % of control | dose: 400.0 mg/kg/injection, schedule: Q01DX009 (ip), vehicle: saline 92 % of control

NC1CC(C(=O)O)CCC1S (stereo unspecified)
inactive: dose: 12.5 mg/kg/injection, schedule: Q04DX002 (ip), vehicle: saline 106 % of control | dose: 50.0 mg/kg/injection, schedule: Q04DX002 (ip), vehicle: other 94 % of control | dose: 50.0 mg/kg/injection, schedule: Q04DX002 (ip), vehicle: saline 87 % of control | dose: 100.0 mg/kg/injection, schedule: Q04DX002 (ip), vehicle: other 91 % of control

O=C(COc1ccc(Cl)cc1Cl)NCCSCc1ccccc1
inactive: [7] 91 % of control | [8] 89 % of control

Fc1ccc(NC(=S)NCCN2CCCC2)cc1
inactive: dose: 25.0 mg/kg/injection, schedule: Q01DX009 (ip), vehicle: Klucel (hydroxypropylcellulose) (HPC) 100 % of control | [9] 117 % of control | [7] 100 % of control and 102 % of control

CCOc1ccc(C(/C(Cl)=N/O)C(Cl)(Cl)Cl)cc1 (stereo unspecified)
inactive: dose: 12.5 mg/kg/injection, schedule: Q04DX003 (ip), vehicle: acetone 93 % of control | dose: 25.0 mg/kg/injection, schedule: Q04DX003 (ip), vehicle: acetone 97 % of control | dose: 50.0 mg/kg/injection, schedule: Q04DX003 (ip), vehicle: acetone 92 % of control

O=C1NC(=O)N(Cc2ccccc2)C(=O)C1Cc1ccccc1 (stereo unspecified)
inactive: [4] 97 % of control | [5] 95 % of control | [6] 103 % of control

NC(Cc1cccs1)C(=O)O (stereo unspecified)
inactive: [4] 96 % of control | [10] 101 % of control | [11] 99 % of control | [5] 101 % of control | [12] 104 % of control | [13] 99 % of control | dose: 250.0 mg/kg/injection, schedule: Q01DX Z (ip), vehicle: carboxymethylcellulose (CMC) 89 % of control | [6] 101 % of control | dose: 400.0 mg/kg/injection, schedule: Q01DX009 (ip), vehicle: saline with Tween-80 97 % of control | dose: 400.0 mg/kg/injection, schedule: Q04DX003 (ip), vehicle: saline with Tween-80 96 % of control | dose: 1000.0 mg/kg/injection, schedule: Q01DX Z (ip), vehicle: carboxymethylcellulose (CMC) 92 % of control

O=C(OCCCCCCCCOC(=O)c1cccc([N+](=O)[O-])c1)c1cccc([N+](=O)[O-])c1
inactive: dose: 100.0 mg/kg/injection, schedule: Q01DX001 (ip), vehicle: other 102 % of control | dose: 200.0 mg/kg/injection, schedule: Q01DX001 (ip), vehicle: other 101 % of control | dose: 400.0 mg/kg/injection, schedule: Q01DX001 (ip), vehicle: other 96 % of control

CC(=O)CCC(=O)NC(C)C
inactive: dose: 100.0 mg/kg/injection, schedule: Q04DX002 (ip), vehicle: saline with Tween-80 102 % of control | dose: 200.0 mg/kg/injection, schedule: Q04DX002 (ip), vehicle: saline with Tween-80 102 % of control | dose: 400.0 mg/kg/injection, schedule: Q04DX002 (ip), vehicle: saline with Tween-80 117 % of control

CCOC(=O)c1cnc(NN)nc1NCc1ccccc1
inactive: [14] 93 % of control | [10] 89 % of control | [11] 87 % of control | [12] 98 % of control | [13] 96 % of control

O=[N+]([O-])c1ccc(S(=O)c2ccc([N+](=O)[O-])cc2)cc1
inactive: [7] 108 % of control | [1] 98 % of control | dose: 200.0 mg/kg/injection, schedule: Q01DX009 (ip), vehicle: Klucel (hydroxypropylcellulose) (HPC) 95 % of control | [2] 98 % of control | [8] 101 % of control | [3] 93 % of control

Nc1nccnc1C(=O)O
inactive: dose: 25.0 mg/kg/injection, schedule: Q01DX009 (ip), vehicle: water 100 % of control | dose: 50.0 mg/kg/injection, schedule: Q01DX009 (ip), vehicle: water 96 % of control | dose: 100.0 mg/kg/injection, schedule: Q01DX009 (ip), vehicle: water 100 % of control | dose: 200.0 mg/kg/injection, schedule: Q01DX009 (ip), vehicle: water 96 % of control

CCN(CC)C(=O)c1ccc[n+](CC(=O)Nc2ccc(Cl)cc2)c1
inactive: dose: 12.5 mg/kg/injection, schedule: Q01DX009 (ip), vehicle: saline with Tween-80 97 % of control | dose: 12.5 mg/kg/injection, schedule: Q04DX003 (ip), vehicle: saline with Tween-80 100 % of control | dose: 25.0 mg/kg/injection, schedule: Q01DX009 (ip), vehicle: saline with Tween-80 97 % of control | dose: 25.0 mg/kg/injection, schedule: Q04DX003 (ip), vehicle: saline with Tween-80 94 % of control | [14] 97 % of control | dose: 50.0 mg/kg/injection, schedule: Q04DX003 (ip), vehicle: saline with Tween-80 103 % of control

O=C1C=C/C(=N/S(=O)(=O)c2ccccc2)c2ccccc21
inactive: dose: 6.0 mg/kg/injection, schedule: Q01DX009 (ip), vehicle: DMSO 106 % of control | dose: 12.0 mg/kg/injection, schedule: Q01DX009 (ip), vehicle: DMSO 88 % of control | dose: 25.0 mg/kg/injection, schedule: Q01DX009 (ip), vehicle: DMSO 86 % of control | dose: 25.0 mg/kg/injection, schedule: Q04DX003 (ip), vehicle: DMSO 94 % of control | dose: 50.0 mg/kg/injection, schedule: Q04DX003 (ip), vehicle: DMSO 89 % of control | dose: 100.0 mg/kg/injection, schedule: Q04DX003 (ip), vehicle: DMSO 106 % of control and 88 % of control

NC(=O)NC1C(c2ccccc2)=NOC1C(N)=O (stereo unspecified)
inactive: dose: 25.0 mg/kg/injection, schedule: Q04DX003 (ip), vehicle: Klucel (hydroxypropylcellulose) (HPC) 94 % of control | [9] 88 % of control | dose: 50.0 mg/kg/injection, schedule: Q04DX003 (ip), vehicle: Klucel (hydroxypropylcellulose) (HPC) 105 % of control | [7] 93 % of control | [1] 96 % of control

From PubChem BioAssay AID248 (DTP/NCI, 2004)
